What was measured:
OVCAR-5 ovarian cancer = test: Cytotoxicity, OVCAR-5; format: cell-based; conditions: Homo sapiens, read-out: Log10 GI50, OVCAR-5 (converted)
From the text: (§1) A total of 55 cell lines from the leukemia, non-small cell lung cancer, small cell lung cancer, colon cancer, CNS cancer, melanoma, ovarian cancer, and renal cancer panels were examined.

UO-31 renal cancer = test: Cytotoxicity, UO-31; format: cell-based; conditions: Homo sapiens, read-out: Log10 GI50, UO-31 (converted)
From the text: as §1

KM20L2 colon cancer = test: Cytotoxicity, KM20L2; format: cell-based; conditions: Homo sapiens, KM-20L2; read-out: Log10 GI50, KM20L2 (converted)
From the text: as §1

SF-295 CNS cancer = test: Cytotoxicity, SF-295
[1] = test system: NCI-H23 non-small cell lung cancer; test: Cytotoxicity, NCI-H23; format: cell-based; conditions: Homo sapiens, read-out: Log10 GI50, NCI-H23 (converted)
From the text: as §1

SF-539 CNS cancer = test: Cytotoxicity, SF-539; format: cell-based; conditions: Homo sapiens, read-out: Log10 GI50, SF-539 (converted)
From the text: as §1

M19-MEL melanoma = test: Cytotoxicity, M19-MEL; format: cell-based; conditions: Homo sapiens, read-out: Log10 GI50, M19-MEL (converted)
From the text: as §1

[2] = test system: HOP-92 non-small cell lung cancer; test: Cytotoxicity, HOP-92; format: cell-based; conditions: Homo sapiens, read-out: Log10 GI50, HOP-92 (converted)
From the text: as §1

TK-10 renal cancer = test: Cytotoxicity, TK-10; format: cell-based; conditions: Homo sapiens, read-out: Log10 GI50, TK-10 (converted)
From the text: as §1

COLO 205 colon cancer = test: Cytotoxicity, COLO 205
CCRF-CBM leukemia = test: Cytotoxicity, CCRF-CBM; format: cell-based; conditions: read-out: Log10 GI50, CCRF-CBM (converted)
From the text: as §1

MOLT-4 leukemia = test: Cytotoxicity, MOLT-4; format: cell-based; conditions: Homo sapiens, read-out: Log10 GI50, MOLT-4 (converted)
From the text: as §1

[3] = test system: NCI-H322M non-small cell lung cancer; test: Cytotoxicity, NCI-H322M; format: cell-based; conditions: Homo sapiens, read-out: Log10 GI50, NCI-H322M (converted)
From the text: as §1

CAKI-1 renal cancer = test: Cytotoxicity, CAKI-1; conditions: read-out: cytotoxicity GI50, CAKI-1, 50% growth inhibition, average of two determinations, 8640 min, Hydrochloride
SK-MEL-5 melanoma = test: Cytotoxicity, SK-MEL-5 (Table XI panel); format: cell-based; conditions: Homo sapiens, read-out: Log10 GI50, SK-MEL-5 (converted)
From the text: as §1

UACC-62 melanoma = test: Cytotoxicity, UACC-62; format: cell-based; conditions: Homo sapiens, read-out: Log10 GI50, UACC-62 (converted)
From the text: as §1

ACHN renal cancer = test: Cytotoxicity, ACHN; format: cell-based
From the text: as §1

A498 renal cancer = test: Cytotoxicity, A498; format: cell-based; conditions: Homo sapiens, read-out: Log10 GI50, A498 (converted)
From the text: as §1

HL-60 (TB) leukemia = test: Cytotoxicity, HL-60(TB) leukemia; conditions: read-out: cytotoxicity GI50, HL-60(TB); 50% growth inhibition; average of two determinations; 8640 min; Hydrochloride, 8640 min
OVCAR-3 ovarian cancer = test: Cytotoxicity, OVCAR-3; conditions: read-out: cytotoxicity GI50, OVCAR-3, 50% growth inhibition, average of two determinations, 8640 min, Hydrochloride
SK-OV-3 ovarian cancer = test: Cytotoxicity, SK-OV-3; format: cell-based; conditions: Homo sapiens, read-out: Log10 GI50, SK-OV-3 (converted)
From the text: as §1

[4] = test system: LXFL 529 non-small cell lung cancer; test: Cytotoxicity, LXFL 529; format: cell-based; conditions: Homo sapiens, read-out: Log10 GI50, LXFL 529 (converted)
From the text: as §1

For `COc1cc(CNc2ccc(C)cc2)cc(OC)c1OC.Cl` [110a, 4-Methyl-N-(3,4,5-trimethoxybenzyl)aniline Hydrochloride], the GI50 (OVCAR-5 ovarian cancer) was 1350 nM, the GI50 (UO-31 renal cancer) was 832 nM and the GI50 (KM20L2 colon cancer) was 251 nM. The “Log10 GI50, SF-295” value (SF-295 CNS cancer) was -6.49, the GI50 (SF-295 CNS cancer; read-out: cytotoxicity GI50, SF-295, 50% growth inhibition, average of two determinations, 8640 min, Hydrochloride, 8640 min) was 233 nM and the GI50 [1] was 407 nM. The GI50 (SF-539 CNS cancer) was 316 nM, the GI50 (M19-MEL melanoma) was 331 nM and the GI50 [2] was 18600 nM. The GI50 (TK-10 renal cancer) was over 100000 nM, the “Log10 GI50, COLO 205” value (COLO 205 colon cancer) was -6.67 and the GI50 (COLO 205 colon cancer; read-out: cytotoxicity GI50, COLO 205, 50% growth inhibition, average of two determinations, 8640 min, Hydrochloride, 8640 min) was 219 nM. For the same compound, the GI50 (CCRF-CBM leukemia) was 282 nM, the GI50 (MOLT-4 leukemia) was 427 nM and the GI50 [3] was 501 nM. For the same compound, the GI50 (CAKI-1 renal cancer) was 162 nM, the GI50 (SK-MEL-5 melanoma) was 912 nM and the GI50 (UACC-62 melanoma) was 575 nM. The GI50 (ACHN renal cancer; Homo sapiens, ACHN, read-out: Log10 GI50, ACHN (converted)) was under 100 nM, the “Log10 GI50, ACHN” value (ACHN renal cancer; Hydrochloride) was -7.01 and the GI50 (A498 renal cancer) was over 100000 nM. It also gave a GI50 (HL-60 (TB) leukemia) of 72.2 nM, a GI50 (OVCAR-3 ovarian cancer) of 214 nM and a GI50 (SK-OV-3 ovarian cancer) of 269 nM. The GI50 [4] was 631 nM.
